Results taken from ChEMBL document CHEMBL3991601, “The target landscape of clinical kinase drugs” (Science, 2017).
Calls of active or inactive are those of the source. On the calls: in the data inactive means no Kd found up to 30 µM.

Assays:
[1] = target: Cell division cycle 7-related protein kinase (Homo sapiens, UniProt O00311)
[2] = target: Serine/threonine-protein kinase Nek7 (Homo sapiens, UniProt Q8TDX7)
[3] = target: Serine/threonine-protein kinase N3 (Homo sapiens, UniProt Q6P5Z2)
[4] = target: T1, Electron transfer flavoprotein subunit beta (Homo sapiens, UniProt P38117)
T1 sequence (P38117 whole entry): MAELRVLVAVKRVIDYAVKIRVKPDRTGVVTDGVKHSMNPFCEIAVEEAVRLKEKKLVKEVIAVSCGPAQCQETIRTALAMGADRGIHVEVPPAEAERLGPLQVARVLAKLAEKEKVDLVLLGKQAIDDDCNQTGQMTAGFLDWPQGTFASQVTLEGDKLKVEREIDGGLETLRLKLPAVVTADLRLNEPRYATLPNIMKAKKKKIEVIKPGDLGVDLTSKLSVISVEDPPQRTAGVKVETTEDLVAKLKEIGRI

[5] = target: T2, Cyclin-dependent kinase-like 5 (Homo sapiens, UniProt O76039)
T2 sequence (O76039 whole entry): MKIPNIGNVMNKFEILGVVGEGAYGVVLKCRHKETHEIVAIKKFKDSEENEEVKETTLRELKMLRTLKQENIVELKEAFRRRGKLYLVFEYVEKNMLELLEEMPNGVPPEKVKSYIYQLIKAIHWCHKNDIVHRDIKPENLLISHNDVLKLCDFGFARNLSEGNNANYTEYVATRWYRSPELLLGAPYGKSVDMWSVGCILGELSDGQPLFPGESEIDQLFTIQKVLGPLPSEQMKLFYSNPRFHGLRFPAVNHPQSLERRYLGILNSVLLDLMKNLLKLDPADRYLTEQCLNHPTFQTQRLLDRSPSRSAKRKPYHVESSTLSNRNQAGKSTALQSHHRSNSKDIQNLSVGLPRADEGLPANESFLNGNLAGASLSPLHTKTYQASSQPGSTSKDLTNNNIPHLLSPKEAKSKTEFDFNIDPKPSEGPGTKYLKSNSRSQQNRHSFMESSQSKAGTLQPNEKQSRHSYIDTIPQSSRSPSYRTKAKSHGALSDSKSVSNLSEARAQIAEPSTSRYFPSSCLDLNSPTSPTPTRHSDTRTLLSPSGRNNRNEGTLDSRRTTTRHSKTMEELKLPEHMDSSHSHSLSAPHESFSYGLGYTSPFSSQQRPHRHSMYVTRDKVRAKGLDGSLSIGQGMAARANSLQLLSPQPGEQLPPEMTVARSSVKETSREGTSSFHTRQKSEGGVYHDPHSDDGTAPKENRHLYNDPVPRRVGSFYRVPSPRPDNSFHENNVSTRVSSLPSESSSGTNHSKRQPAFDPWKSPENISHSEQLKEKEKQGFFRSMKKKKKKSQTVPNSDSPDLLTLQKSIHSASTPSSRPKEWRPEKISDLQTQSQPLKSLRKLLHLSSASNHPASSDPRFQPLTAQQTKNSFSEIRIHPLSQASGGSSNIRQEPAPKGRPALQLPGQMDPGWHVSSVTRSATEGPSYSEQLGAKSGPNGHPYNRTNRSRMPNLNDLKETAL

[6] = target: Serine/threonine-protein kinase PLK1 (Homo sapiens, UniProt P53350)
Chain of Serine/threonine-protein kinase PLK1 (P53350 whole entry): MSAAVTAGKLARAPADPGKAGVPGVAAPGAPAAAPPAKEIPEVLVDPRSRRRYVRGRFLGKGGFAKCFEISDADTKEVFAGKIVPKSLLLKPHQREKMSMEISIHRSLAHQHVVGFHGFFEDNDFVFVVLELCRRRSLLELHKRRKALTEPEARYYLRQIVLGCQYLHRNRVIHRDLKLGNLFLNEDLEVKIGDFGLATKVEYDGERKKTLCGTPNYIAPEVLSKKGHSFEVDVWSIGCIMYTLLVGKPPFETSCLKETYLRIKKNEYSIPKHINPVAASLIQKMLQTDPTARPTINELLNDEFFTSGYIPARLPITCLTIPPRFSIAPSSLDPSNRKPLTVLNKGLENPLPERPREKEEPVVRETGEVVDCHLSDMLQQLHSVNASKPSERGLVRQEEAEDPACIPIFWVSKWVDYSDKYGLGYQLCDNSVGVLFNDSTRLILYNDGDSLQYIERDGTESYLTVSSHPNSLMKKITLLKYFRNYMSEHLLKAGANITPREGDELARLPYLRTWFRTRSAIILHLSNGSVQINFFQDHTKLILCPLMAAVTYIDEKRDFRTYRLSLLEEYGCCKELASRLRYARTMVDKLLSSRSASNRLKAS

UMP-CMP kinase = target: T3, UMP-CMP kinase (Homo sapiens, UniProt P30085)
T3 sequence (P30085 whole entry): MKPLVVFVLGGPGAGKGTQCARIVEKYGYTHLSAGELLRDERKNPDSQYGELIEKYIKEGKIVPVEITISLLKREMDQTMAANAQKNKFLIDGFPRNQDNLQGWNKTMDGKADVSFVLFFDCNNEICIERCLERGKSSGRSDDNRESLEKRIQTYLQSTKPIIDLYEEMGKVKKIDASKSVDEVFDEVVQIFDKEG

Chain of Serine/threonine-protein kinase N3 (Q6P5Z2 whole entry): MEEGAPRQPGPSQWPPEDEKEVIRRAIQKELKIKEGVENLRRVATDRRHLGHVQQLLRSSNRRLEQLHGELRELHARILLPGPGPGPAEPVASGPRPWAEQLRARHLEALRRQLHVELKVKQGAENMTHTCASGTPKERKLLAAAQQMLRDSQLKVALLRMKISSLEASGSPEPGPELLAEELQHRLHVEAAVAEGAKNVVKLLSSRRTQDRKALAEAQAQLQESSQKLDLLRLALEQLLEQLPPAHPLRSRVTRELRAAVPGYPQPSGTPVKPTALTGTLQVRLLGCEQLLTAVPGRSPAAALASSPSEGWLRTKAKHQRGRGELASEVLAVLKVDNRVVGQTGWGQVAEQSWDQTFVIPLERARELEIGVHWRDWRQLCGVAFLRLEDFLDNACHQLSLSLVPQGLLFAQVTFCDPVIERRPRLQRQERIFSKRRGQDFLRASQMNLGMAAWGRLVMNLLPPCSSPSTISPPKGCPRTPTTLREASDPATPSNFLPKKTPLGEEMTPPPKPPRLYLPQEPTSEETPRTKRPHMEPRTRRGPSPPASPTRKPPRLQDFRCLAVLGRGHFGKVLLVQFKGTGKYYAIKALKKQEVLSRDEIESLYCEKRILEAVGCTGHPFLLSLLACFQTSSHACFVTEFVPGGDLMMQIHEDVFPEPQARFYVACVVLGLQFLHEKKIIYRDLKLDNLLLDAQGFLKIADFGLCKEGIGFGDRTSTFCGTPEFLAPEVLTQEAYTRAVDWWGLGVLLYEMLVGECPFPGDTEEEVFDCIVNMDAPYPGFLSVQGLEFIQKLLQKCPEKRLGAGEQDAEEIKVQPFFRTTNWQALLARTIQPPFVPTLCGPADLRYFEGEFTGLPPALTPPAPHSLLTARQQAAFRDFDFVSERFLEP
Chain of Cell division cycle 7-related protein kinase (O00311 whole entry): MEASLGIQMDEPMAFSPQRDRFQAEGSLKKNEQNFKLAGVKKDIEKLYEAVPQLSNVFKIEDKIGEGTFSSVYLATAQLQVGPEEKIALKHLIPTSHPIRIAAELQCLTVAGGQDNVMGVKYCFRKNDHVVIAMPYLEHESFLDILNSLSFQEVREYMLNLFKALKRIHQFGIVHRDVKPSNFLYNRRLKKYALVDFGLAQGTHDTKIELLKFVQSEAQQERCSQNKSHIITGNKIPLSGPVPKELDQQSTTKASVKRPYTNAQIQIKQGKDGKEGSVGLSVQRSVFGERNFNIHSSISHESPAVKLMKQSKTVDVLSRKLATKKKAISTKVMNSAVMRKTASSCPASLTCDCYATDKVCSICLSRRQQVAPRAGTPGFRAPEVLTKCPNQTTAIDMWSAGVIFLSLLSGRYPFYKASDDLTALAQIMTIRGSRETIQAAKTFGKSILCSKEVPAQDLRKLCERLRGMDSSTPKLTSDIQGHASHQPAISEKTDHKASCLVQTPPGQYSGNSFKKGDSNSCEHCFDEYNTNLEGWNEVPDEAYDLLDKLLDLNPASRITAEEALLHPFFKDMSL
Chain of Serine/threonine-protein kinase Nek7 (Q8TDX7 whole entry): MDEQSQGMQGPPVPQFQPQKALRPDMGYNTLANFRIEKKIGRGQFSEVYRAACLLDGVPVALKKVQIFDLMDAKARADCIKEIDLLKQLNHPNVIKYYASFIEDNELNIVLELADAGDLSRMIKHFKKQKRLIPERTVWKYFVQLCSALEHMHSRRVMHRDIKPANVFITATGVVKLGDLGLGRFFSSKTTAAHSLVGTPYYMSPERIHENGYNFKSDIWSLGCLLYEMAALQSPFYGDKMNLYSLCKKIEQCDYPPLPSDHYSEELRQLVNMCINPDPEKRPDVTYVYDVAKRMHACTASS

Compound | Kd [1] | Kd [2] | Kd [3] | Kd [4] | Kd [5] | Kd [6] | Kd (UMP-CMP kinase)
C[C@@H](Oc1cc(C(=O)Nc2ccc(C(=O)N3CCN(C)CC3)cc2)nnc1N)c1c(Cl)ccc(F)c1Cl | > 30 µM (inactive) | > 30 µM (inactive) |  |  |  |  | 
COCc1c(-c2ccc(NC(=O)Nc3cc(C(F)(F)F)ccc3F)c(F)c2)c2c(N)ncnn2c1CN1CCOCC1 | > 30 µM (inactive) |  | > 30 µM (inactive) | > 30 µM (inactive) | > 30 µM (inactive) | > 30 µM (inactive) | 
COc1cc(Nc2ncc3c(n2)-c2ccc(Cl)cc2C(c2c(F)cccc2OC)=NC3)ccc1C(=O)O [ALISERTIB] |  | > 30 µM (inactive) | > 30 µM (inactive) | > 30 µM (inactive) |  |  | > 30 µM (inactive)
Cc1nc(NC(=O)N2CCC[C@H]2C(N)=O)sc1-c1ccnc(C(C)(C)C(F)(F)F)c1 [ALPELISIB] |  |  |  | > 30 µM (inactive) |  |  | > 30 µM (inactive)
COc1cc([C@@H]2c3cc4c(cc3[C@H](O)[C@H]3COC(=O)[C@@H]23)OCO4)cc(OC)c1OC [AXL-1717] | > 30 µM (inactive) |  |  | > 30 µM (inactive) |  |  | > 30 µM (inactive)
NC(=O)Nc1cc(-c2cccc(F)c2)sc1C(=O)N[C@H]1CCCNC1 [AZD-7762] |  | > 30 µM (inactive) |  | > 30 µM (inactive) |  |  | > 30 µM (inactive)
COc1c(OCCCN2CCOCC2)ccc2c1N=C(NC(=O)c1cnc(N)nc1)N1CCN=C21 [COPANLISIB] |  |  | > 30 µM (inactive) | > 30 µM (inactive) | > 30 µM (inactive) | > 30 µM (inactive) | 
Cc1nc2cc(-n3ncc(C(=O)c4cc5ccccc5[nH]4)c3N)ccc2[nH]1 [FGFR INHIBITOR DEBIO 1347] | > 30 µM (inactive) |  |  | > 30 µM (inactive) | > 30 µM (inactive) |  | > 30 µM (inactive)
Cc1cccc(-c2nn3c(c2-c2ccnc4ccc(C(N)=O)cc24)CCC3)n1 [GALUNISERTIB] |  | > 30 µM (inactive) |  | > 30 µM (inactive) |  | > 30 µM (inactive) | 
FC(F)(F)c1ccc(/C=C/c2nc(COc3ccc(CCCCn4ccnn4)cc3)co2)cc1 [MUBRITINIB] |  |  |  |  | > 30 µM (inactive) | > 30 µM (inactive) | 
N#CC[C@H](C1CCCC1)n1cc(-c2ncnc3[nH]ccc23)cn1 [RUXOLITINIB] | > 30 µM (inactive) |  |  | > 30 µM (inactive) |  |  | 
Cn1ncc(Cl)c1-c1cc(C(=O)N[C@H](CN)Cc2ccc(F)c(F)c2)oc1Cl [UPROSERTIB] |  |  |  | > 30 µM (inactive) |  |  | > 30 µM (inactive)

Next, values leading:

Kd [1] | Kd [2] | Kd [3] | Kd [4] | Kd [5] | Kd [6] | Kd (UMP-CMP kinase) | Compound
> 30 µM (inactive) |  |  | > 30 µM (inactive) |  |  | > 30 µM (inactive) | CN(C[C@@H]1COCCO1)S(=O)(=O)Nc1ccc2ccc3ncc(-c4cnn(C)c4)cc3c(=O)c2c1 [MK-2461]
> 30 µM (inactive) | > 30 µM (inactive) | > 30 µM (inactive) | > 30 µM (inactive) |  | > 30 µM (inactive) | > 30 µM (inactive) | Cn1cc(-c2cnc3ccc4ccc(CS(=O)(=O)NCc5ccccn5)cc4c(=O)c3c2)cn1 [MK-8033]
 |  | > 30 µM (inactive) | > 30 µM (inactive) | > 30 µM (inactive) |  |  | NC(=O)c1c(OCc2c(F)cc(Br)cc2F)nsc1NC(=O)NCCCCN1CCCC1 [OSI-632]
